Measured values reported in ChEMBL document CHEMBL2384975, “Combination Therapy: JAK PI3K/mTOR. A Novel Approach for Cancer Treatment” (2013).

Tests used:
Type in all cases: functional, BaF3
[1] = Anticancer activity against mouse BA/F3 cells expressing JAK2 V617F mutation allografted in Harlan SCID mouse assessed as increase in lifespan at 45 mg/kg, po by luciferase reporter gene assay relative to control
[2] = Anticancer activity against mouse BA/F3 cells expressing JAK2 V617F mutation allografted in Harlan SCID mouse assessed as mean survival days at 45 mg/kg, po by luciferase reporter gene assay (reference value: 16 days)
[3] = Anticancer activity against mouse BA/F3 cells expressing JAK2 V617F mutation allografted in Harlan SCID mouse assessed as mean survival days at 60 mg/kg, po by luciferase reporter gene assay (reference value: 16 days)
[4] = Anticancer activity against mouse BA/F3 cells expressing JAK2 V617F mutation allografted in Harlan SCID mouse assessed as increase in lifespan at 60 mg/kg, po by luciferase reporter gene assay relative to control

Structure (SMILES)	Activity [1] [%]	MSD [2] [days]	MSD [3] [days]	Activity [4] [%]
Cn1c(=O)n(-c2ccc(C(C)(C)C#N)cc2)c2c3cc(-c4cnc5ccccc5c4)ccc3ncc21 [DACTOLISIB]	42	24		
N#CC[C@H](C1CCCC1)n1cc(-c2ncnc3[nH]ccc23)cn1 [RUXOLITINIB]			19	19
